# Test results from publication PMC13463089, “PA200 modulates immunoproteasome structure and activity” (Nature Communications, 2026).
# Numbered stars: 1 amine (or outer) side, 2 acyl side, 3 side chain; on linkers, the order of the positions; unused ones are H or OH. Peptide text beside a SMILES is read from it. * marks the point of attachment. AMC = Cc1cc(=O)oc2cc(N*)ccc12; Suc = O=C(CCC(=O)[*:2])[*:1]
# Tests used:
# [1] = target: T1, i20S-PA200 complex (PA200 / PSME4 bound to the immunoproteasome) (Homo sapiens, UniProt Q14997); assay: fluorogenic peptide assay of […] activity; assay type: biochemical; conditions: PA200 21.5 nM preincubated with 70 uM IP6, i20S 1.5 nM; substrates LLVY, ANW, PAL, LRR; pH 7.6, 37 C; activator
# T1 construct: recombinant purified human PA200, about 200 kDa, one or two copies per 20S; human i20S commercial (cryo-EM) or purified from HEK293-EBNA (activity); with Proteasome subunit beta type-8; Proteasome subunit beta type-9; Proteasome subunit beta type-10; Proteasome subunit alpha type-6; Proteasome subunit alpha type-2; Proteasome subunit alpha type-4; Proteasome subunit alpha type-7; Proteasome subunit alpha type-5; Proteasome subunit alpha type-1; Proteasome subunit alpha type-3; Proteasome subunit beta type-3; Proteasome subunit beta type-2; Proteasome subunit beta type-1; Proteasome subunit beta type-4
# [2] = target: T2, s20S-PA200 complex (PA200 / PSME4 bound to the standard proteasome) (Homo sapiens, UniProt Q14997); assay: fluorogenic peptide assay of […] activity; assay type: biochemical; conditions: PA200 21.5 nM preincubated with 70 uM IP6, s20S 1.5 nM; pH 7.6, 37 C
# T2 construct: recombinant purified human PA200 mixed with purified human s20S; with Proteasome subunit beta type-5; Proteasome subunit beta type-6; Proteasome subunit beta type-7; Proteasome subunit alpha type-6; Proteasome subunit alpha type-2; Proteasome subunit alpha type-4; Proteasome subunit alpha type-7; Proteasome subunit alpha type-5; Proteasome subunit alpha type-1; Proteasome subunit alpha type-3; Proteasome subunit beta type-3; Proteasome subunit beta type-2; Proteasome subunit beta type-1; Proteasome subunit beta type-4
# [3] = target: T1, i20S-PA200 complex (PA200 / PSME4 bound to the immunoproteasome); assay: cryo-EM structure ([…] and […] A); assay type: binding; conditions: two IP6 molecules in the two positively charged grooves of PA200; density assigned by analogy to s20S-PA200 structures
# [4] = target: T3, s20S (standard 20S proteasome), beta5 site (Homo sapiens, UniProt P28074); assay: fluorogenic AMC release; assay type: biochemical; conditions: chymotrypsin-like (beta5) site; 200 uM substrate, 1.5 nM 20S, pH 7.6, 37 C
# T3 construct: gene PSMB5; with Proteasome subunit beta type-6; Proteasome subunit beta type-7; Proteasome subunit alpha type-6; Proteasome subunit alpha type-2; Proteasome subunit alpha type-4; Proteasome subunit alpha type-7; Proteasome subunit alpha type-5; Proteasome subunit alpha type-1; Proteasome subunit alpha type-3; Proteasome subunit beta type-3; Proteasome subunit beta type-2; Proteasome subunit beta type-1; Proteasome subunit beta type-4
# T3 sequence (P28074 60-263): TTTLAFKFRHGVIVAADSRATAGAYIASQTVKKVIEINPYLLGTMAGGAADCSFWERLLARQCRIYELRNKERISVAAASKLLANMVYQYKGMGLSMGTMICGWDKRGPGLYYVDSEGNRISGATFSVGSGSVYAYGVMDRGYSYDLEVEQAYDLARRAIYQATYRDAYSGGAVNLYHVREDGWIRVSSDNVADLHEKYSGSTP
# [5] = target: T4, i20S (20S immunoproteasome), beta5i site (Homo sapiens, UniProt P28062); assay: fluorogenic AMC release; assay type: biochemical; conditions: chymotrypsin-like (beta5i) site; 200 uM substrate, 1.5 nM 20S, pH 7.6, 37 C
# T4 construct: gene PSMB8; with Proteasome subunit beta type-9; Proteasome subunit beta type-10; Proteasome subunit alpha type-6; Proteasome subunit alpha type-2; Proteasome subunit alpha type-4; Proteasome subunit alpha type-7; Proteasome subunit alpha type-5; Proteasome subunit alpha type-1; Proteasome subunit alpha type-3; Proteasome subunit beta type-3; Proteasome subunit beta type-2; Proteasome subunit beta type-1; Proteasome subunit beta type-4
# T4 sequence (P28062 73-276): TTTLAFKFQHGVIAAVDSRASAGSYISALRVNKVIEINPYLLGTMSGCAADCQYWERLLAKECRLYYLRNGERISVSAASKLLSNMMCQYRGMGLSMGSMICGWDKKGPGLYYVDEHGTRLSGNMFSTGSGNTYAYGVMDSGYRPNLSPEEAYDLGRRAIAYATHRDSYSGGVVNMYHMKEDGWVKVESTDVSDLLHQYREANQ
# T1 sequence (Q14997 whole entry, one chain of several): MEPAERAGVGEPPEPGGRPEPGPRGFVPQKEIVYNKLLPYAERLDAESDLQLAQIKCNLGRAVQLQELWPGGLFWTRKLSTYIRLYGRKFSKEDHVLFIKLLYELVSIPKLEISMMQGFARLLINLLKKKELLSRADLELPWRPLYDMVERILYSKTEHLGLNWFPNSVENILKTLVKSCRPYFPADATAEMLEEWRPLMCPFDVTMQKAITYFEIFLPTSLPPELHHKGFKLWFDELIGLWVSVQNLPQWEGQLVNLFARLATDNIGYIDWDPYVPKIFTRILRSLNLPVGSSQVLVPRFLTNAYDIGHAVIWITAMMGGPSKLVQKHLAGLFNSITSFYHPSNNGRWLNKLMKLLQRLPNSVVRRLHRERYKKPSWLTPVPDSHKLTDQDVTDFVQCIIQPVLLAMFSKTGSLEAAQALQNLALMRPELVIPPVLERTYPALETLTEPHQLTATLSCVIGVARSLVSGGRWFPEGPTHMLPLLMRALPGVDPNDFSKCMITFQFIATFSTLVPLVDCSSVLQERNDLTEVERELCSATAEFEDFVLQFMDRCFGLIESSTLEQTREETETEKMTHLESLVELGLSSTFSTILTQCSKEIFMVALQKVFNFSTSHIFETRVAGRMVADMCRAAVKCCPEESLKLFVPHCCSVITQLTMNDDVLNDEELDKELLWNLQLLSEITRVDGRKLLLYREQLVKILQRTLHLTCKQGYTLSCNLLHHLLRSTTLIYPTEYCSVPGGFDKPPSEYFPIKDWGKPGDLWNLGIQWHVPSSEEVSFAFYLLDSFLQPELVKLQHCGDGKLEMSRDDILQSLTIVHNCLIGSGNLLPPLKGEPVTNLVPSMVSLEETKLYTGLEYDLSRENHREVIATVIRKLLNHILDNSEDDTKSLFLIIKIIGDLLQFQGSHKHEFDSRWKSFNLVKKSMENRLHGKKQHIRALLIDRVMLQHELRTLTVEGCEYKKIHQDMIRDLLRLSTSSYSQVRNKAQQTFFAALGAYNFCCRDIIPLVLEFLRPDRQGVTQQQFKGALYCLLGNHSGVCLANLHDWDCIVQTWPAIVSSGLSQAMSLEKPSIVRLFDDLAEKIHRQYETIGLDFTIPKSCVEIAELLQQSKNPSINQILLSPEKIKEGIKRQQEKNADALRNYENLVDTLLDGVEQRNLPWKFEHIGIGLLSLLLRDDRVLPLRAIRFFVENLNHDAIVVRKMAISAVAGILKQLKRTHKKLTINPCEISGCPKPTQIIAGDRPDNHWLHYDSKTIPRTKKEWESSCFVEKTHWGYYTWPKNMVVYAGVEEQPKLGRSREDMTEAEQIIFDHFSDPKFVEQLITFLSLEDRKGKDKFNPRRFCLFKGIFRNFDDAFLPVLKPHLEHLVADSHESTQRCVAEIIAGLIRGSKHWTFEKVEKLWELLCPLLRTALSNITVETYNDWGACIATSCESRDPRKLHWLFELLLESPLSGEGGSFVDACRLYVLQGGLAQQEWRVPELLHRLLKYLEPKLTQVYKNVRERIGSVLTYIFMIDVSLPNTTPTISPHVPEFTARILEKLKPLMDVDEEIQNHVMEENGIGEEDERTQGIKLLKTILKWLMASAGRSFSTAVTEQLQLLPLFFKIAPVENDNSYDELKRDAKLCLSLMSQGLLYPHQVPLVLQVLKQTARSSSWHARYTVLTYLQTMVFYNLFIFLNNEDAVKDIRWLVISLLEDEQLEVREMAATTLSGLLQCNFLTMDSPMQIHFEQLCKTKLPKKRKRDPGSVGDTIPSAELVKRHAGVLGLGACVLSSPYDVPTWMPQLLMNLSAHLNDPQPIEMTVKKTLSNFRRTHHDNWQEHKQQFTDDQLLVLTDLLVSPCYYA
# T1 sequence (P28065 21-219 partner, one chain of several): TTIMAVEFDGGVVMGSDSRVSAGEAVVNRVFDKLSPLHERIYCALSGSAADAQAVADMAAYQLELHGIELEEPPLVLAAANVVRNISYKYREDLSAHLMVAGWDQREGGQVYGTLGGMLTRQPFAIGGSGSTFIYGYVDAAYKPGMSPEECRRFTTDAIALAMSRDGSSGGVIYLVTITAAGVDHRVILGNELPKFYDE
# T1 sequence (P40306 40-273 partner, one chain of several): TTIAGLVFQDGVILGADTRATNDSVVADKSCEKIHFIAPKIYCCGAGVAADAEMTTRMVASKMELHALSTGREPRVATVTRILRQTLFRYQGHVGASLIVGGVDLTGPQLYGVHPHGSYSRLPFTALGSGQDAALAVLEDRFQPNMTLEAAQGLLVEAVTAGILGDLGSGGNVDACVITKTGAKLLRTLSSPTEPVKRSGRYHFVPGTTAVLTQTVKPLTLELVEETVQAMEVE
# T2 sequence (Q14997 whole entry, one chain of several): as the sequence (Q14997 whole entry, one chain of several) above
# T2 sequence (P28072 35-239 partner, one chain of several): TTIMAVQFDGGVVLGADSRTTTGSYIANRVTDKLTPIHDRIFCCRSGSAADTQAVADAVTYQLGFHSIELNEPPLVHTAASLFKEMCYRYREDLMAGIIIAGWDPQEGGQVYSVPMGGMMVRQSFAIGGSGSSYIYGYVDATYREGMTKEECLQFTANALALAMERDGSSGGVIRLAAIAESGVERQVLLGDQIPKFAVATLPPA
# T2 sequence (Q99436 44-277 partner, one chain of several): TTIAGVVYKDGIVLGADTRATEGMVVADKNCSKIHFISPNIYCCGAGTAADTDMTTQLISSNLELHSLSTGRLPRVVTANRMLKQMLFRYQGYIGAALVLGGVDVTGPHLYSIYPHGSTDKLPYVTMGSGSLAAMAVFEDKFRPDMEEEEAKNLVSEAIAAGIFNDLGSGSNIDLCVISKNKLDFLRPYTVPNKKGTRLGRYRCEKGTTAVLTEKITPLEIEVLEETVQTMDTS
SMILES,relative activity [1],relative activity [2],cryo-EM structure (2.85 and 2.89 A) [3],fluorogenic AMC release [4],fluorogenic AMC release [5]
O=P(O)(O)O[C@H]1[C@H](OP(=O)(O)O)[C@@H](OP(=O)(O)O)[C@H](OP(=O)(O)O)[C@@H](OP(=O)(O)O)[C@H]1OP(=O)(O)O [IP6],strong increase of the three activities that are specific for the i20S,"Effect of phytic acid (IP6) on PA200-activated i20S (B, dark blue bars) and s20S",we assigned these densities to two molecules of IP6,,
Cc1cc(=O)oc2cc(NC(=O)[C@H](Cc3ccc(O)cc3)NC(=O)[C@@H](NC(=O)[C@H](CC(C)C)NC(=O)[C@H](CC(C)C)NC(=O)CCC(=O)O)C(C)C)ccc12 [Suc-LLVY-AMC] (Suc-LLVY-{AMC}),,,,the baseline CT-L and T-L activities of the i20S and s20S were similar,the baseline CT-L and T-L activities of the i20S and s20S were similar
